# In PMC6858848 (Bioorganic & medicinal chemistry letters, 2019):
# Experiments:
# hepG2 cells = conditions: CellTiter-Glo
# 40 targets, mostly GPCRs = conditions: 10 μM, NIMH PDSP
# [1] = cited from earlier work
# Kv7.2 channels = Kv7.2 channels (Homo sapiens, UniProt O43526); assay: Kv7.2 thallium flux assay in HEK 293 cells; assay type: cell-based; conditions: for fold lower potency in Kv7.2 assay relative to DMP 543: compared with DMP 543
# Acid stability = assay type: physicochemical; conditions: HPLC peak areas (254 nm) after heating at 60°C in 1:1 MeCN:0.2N aq. HCl for 24 h, 0.3 mM
# hERG channels = hERG channels (Homo sapiens, UniProt Q12809); assay: hERG thallium flux assay in HEK 293 cells; conditions: for hERG flux IC50: HEK 293 cells expressing hERG channels
# Alzheimer's patients = conditions: cited from earlier work
# ACh release = conditions: read-out: ACh release EC50; cited from earlier work
# [2] = tested on: mouse model of Parkinson's disease; conditions: cited from earlier work
# Chain of hERG channels (Q12809 whole entry): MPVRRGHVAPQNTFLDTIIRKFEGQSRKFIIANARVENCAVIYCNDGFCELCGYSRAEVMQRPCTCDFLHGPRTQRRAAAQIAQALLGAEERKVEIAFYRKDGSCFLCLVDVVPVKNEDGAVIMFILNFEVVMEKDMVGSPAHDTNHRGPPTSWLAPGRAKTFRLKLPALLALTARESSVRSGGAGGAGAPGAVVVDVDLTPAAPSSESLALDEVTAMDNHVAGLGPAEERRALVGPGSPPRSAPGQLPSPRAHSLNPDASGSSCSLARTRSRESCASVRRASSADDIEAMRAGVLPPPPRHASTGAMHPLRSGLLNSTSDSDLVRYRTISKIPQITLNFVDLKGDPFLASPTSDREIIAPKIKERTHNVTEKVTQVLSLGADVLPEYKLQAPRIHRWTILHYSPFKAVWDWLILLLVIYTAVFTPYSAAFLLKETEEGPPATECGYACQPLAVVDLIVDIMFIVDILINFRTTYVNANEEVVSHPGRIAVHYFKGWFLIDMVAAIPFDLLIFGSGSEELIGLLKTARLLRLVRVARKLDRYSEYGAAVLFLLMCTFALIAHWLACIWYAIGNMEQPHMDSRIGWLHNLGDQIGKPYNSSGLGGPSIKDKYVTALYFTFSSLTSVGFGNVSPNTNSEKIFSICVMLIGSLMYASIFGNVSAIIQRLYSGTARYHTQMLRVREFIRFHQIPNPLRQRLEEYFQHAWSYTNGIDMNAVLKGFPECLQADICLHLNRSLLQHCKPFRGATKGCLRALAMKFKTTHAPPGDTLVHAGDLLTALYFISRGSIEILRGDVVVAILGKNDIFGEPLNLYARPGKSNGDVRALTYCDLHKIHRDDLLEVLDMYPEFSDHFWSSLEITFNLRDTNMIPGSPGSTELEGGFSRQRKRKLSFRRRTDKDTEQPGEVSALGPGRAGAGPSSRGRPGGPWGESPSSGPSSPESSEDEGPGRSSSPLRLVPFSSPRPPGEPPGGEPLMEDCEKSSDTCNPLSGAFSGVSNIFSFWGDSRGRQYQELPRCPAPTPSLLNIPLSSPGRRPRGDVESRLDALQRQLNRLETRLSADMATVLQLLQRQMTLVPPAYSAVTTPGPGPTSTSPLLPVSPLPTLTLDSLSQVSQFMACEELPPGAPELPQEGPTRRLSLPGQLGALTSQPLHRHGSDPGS
# Chain of Kv7.2 channels (O43526 whole entry): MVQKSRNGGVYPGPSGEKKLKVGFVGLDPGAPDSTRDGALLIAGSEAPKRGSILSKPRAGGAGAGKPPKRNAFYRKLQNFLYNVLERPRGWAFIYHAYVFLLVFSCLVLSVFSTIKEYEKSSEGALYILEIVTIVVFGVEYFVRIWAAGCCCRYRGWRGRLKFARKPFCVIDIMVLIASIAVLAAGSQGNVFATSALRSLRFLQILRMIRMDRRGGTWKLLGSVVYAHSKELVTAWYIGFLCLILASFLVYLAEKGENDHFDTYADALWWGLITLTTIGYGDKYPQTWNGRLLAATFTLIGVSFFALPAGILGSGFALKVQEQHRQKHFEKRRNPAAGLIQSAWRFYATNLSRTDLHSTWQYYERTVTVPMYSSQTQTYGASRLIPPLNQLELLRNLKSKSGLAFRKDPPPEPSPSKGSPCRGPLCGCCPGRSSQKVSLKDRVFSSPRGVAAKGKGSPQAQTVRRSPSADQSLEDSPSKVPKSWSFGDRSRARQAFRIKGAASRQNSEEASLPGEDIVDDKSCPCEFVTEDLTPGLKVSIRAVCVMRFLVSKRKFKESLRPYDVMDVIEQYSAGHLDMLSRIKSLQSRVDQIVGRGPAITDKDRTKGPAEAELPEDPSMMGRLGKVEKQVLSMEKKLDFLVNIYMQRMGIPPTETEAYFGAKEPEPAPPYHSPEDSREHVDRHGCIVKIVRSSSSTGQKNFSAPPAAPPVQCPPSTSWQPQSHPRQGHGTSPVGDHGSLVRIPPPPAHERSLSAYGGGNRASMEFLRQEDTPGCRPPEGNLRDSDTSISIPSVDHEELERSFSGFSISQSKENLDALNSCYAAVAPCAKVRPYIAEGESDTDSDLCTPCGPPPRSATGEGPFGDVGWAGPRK
smiles,measurement,setting,value
"O=C1c2ccccc2C(Cc2ccnc(F)c2)(Cc2ccnc(F)c2)c2ccccc21 [DMP 543, 10,10-Bis[(2-Fluoro-4-Pyridinyl)Methyl]-9(10 H)-Anthracenone]","cytotoxicity CC50, hepG2 cells",hepG2 cells,low cytotoxicity
same,Off-target activities: number of targets (of 40) with >30% binding,"40 targets, mostly GPCRs",6
same,aqueous solubility,[1],6 µM
same,solubility kinetic,physchem,22 µM
O=C1c2ccccc2C(Cc2ccnnc2)(Cc2c(F)cncc2F)c2ccccc21 [JDP-107 (18)],IC50,Kv7.2 channels,180 nM
same,fold lower potency in Kv7.2 assay relative to DMP 543,Kv7.2 channels,approximately 3 fold
same,"acid stability, percent remaining",Acid stability,no degradation
same,Off-target activities: number of targets (of 40) with >30% binding,"40 targets, mostly GPCRs",5
same,IC50,hERG channels,> 32000 nM
same,hERG channel inhibition at 1 μM,"hERG channels; 1 μM, thallium flux",no inhibition
"O=C1N(c2ccccc2)c2ccccc2C1(Cc1ccncc1)Cc1ccncc1 [Linopirdine, 3,3-Bis(4-Pyrindinylmethyl)-1-Phenylindolin-2-One]",efficacy as cognitive enhancer in phase 3 trial,Alzheimer's patients,ineffective
same,tolerability in phase 3 trial,Alzheimer's patients,well-tolerated
"O=C1c2ccccc2C(Cc2ccncc2)(Cc2ccncc2)c2ccccc21 [XE991, 10,10-Bis(4-Pyridinylmethyl)-9(10H)-Anthracenone]",EC50,ACh release,400 nM
same,neuroprotection,[2],acts as a neuroprotective agent
same,IC50,hERG channels,> 32000 nM
O=C1c2ccccc2C(Cc2ccnc(C(F)(F)F)c2)(Cc2ccnc(C(F)(F)F)c2)c2ccccc21 [compound 5],fold lower potency in Kv7.2 assay relative to DMP 543,Kv7.2 channels,~ 100 fold
same,hERG flux IC50,hERG channels; thallium flux,inactive
O=C1c2ccccc2C(Cc2c(F)cncc2F)(Cc2c(F)cncc2F)c2ccccc21 [compound 6],"acid stability, percent remaining",Acid stability,no degradation
O=C1c2ccccc2C(Cc2ccnnc2)(Cc2ccnnc2)c2ccccc21 [compound 7],hERG flux IC50,hERG channels; thallium flux,inactive
Cc1cc(CC2(Cc3ccnc(C)c3)c3ccccc3C(=O)c3ccccc32)ccn1 [compound 8],hERG flux IC50,hERG channels; thallium flux,inactive
